Test results taken from patent US20260374739A1, “SMALL MOLECULAR WEIGHT CHEMICAL COMPOUND TO ANTAGONIZE EPH-EPHRIN TETRAMERIZATION AND INHIBIT BIDIRECTIONAL SIGNALING” (THE BOARD OF REGENTS OF THE UNIVERSITY OF TEXAS SYSTEM, priority 2022, published 2026).
Where “and” joins values, the source holds several entries; their conditions need not be identical. Identical values can stand only once. Entries after “also recorded” stand apart in the source; their conditions may differ. Marks after values point to notes of the source that are not given here.

Legend:
EphrinB2-EphB4 = biological target: T1, EphrinB2-EphB4 (Homo sapiens, UniProt P54760); assay: Octet 80 sec association/500 sec dissociation, immobilized human EphrinB2-Fc binding to soluble human EphB4-His; settings: immobilized human EphrinB2, 25 nM soluble human EphB4; for EphB4 Inhibition Percent, Inhibition of Association-Dissociation: at 3.2 μM and 580 seconds; for EphB4 Inhibition Percent, Inhibition of Association ONLY: at 3.2 μM and 80 seconds
T1 construct: soluble human EphB1-His, EphB2-His, and EphB4-His ectodomains; commercially available human EphrinB1-Fc (EB1), EphrinB2-Fc (EB2), and EphrinB3-Fc (EB3) ectodomain proteins; purchased
T1 sequence (P54760 16-539 limits assumed): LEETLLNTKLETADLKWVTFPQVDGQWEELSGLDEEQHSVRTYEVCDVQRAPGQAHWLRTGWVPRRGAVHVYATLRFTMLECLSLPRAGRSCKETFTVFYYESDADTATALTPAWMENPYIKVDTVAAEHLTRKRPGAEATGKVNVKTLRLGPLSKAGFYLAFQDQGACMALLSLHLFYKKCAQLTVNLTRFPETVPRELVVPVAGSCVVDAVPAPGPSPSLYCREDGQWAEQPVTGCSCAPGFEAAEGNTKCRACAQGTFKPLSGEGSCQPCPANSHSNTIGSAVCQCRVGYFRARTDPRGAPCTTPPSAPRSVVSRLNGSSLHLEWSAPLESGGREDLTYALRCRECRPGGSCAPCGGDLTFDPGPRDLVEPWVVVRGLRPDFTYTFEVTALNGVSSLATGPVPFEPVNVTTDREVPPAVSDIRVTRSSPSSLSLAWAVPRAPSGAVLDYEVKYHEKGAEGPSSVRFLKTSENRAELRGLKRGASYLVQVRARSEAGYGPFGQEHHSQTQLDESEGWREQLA
Summary of the method: (§1)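 EphrinB2-Fc captured on AHC biosensors, then soluble His-tagged EphB ectodomain (25 nM for % inhibition runs) associated 80 s and dissociated 500 s in PBS, 0.05% Tween-20, 1% DMSO ± compound. Compounds tested at 0.1–3.2 μM with a 10 μM max standard; IC50 from AUC of full traces or at 75 s and 135 s.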

EphrinB2-EphB1 = biological target: T2, EphrinB2-EphB1 (Homo sapiens, UniProt P54762); assay: Octet 80 sec association/500 sec dissociation, immobilized human EphrinB2-Fc binding to soluble human EphB1-His; settings: immobilized human EphrinB2, 25 nM soluble human EphB1; for EphB1 Inhibition Percent, Inhibition of Association-Dissociation: at 3.2 μM and 580 seconds; for EphB1 Inhibition Percent, Inhibition of Association ONLY: at 3.2 μM and 80 seconds
T2 construct: soluble human EphB1-His, EphB2-His, and EphB4-His ectodomains; commercially available human EphrinB1-Fc (EB1), EphrinB2-Fc (EB2), and EphrinB3-Fc (EB3) ectodomain proteins; purchased
T2 sequence (P54762 18-540 limits assumed): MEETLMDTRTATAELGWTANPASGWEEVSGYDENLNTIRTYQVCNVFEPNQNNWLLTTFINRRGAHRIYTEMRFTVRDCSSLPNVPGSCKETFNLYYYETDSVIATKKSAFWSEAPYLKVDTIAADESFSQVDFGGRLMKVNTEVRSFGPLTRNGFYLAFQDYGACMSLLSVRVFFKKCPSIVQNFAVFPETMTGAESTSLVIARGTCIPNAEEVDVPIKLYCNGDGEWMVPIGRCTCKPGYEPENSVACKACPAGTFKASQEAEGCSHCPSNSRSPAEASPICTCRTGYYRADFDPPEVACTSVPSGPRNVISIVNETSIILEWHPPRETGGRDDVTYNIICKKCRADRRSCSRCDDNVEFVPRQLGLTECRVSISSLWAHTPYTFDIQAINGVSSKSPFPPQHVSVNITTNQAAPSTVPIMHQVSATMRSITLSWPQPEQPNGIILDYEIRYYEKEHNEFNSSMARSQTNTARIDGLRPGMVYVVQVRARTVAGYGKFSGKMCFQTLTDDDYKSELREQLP
Summary of the method: as §1

EphrinB2-EphB2 [1] = biological target: T3, EphrinB2-EphB2 (Homo sapiens, UniProt P29323); assay: Octet 80 sec association/500 sec dissociation, immobilized human EphrinB2-Fc binding to soluble human EphB2-His; settings: immobilized human EphrinB2, 25 nM soluble human EphB2; for EphB2 Inhibition Percent, Inhibition of Association-Dissociation: at 3.2 μM and 580 seconds; for EphB2 Inhibition Percent, Inhibition of Association ONLY: at 3.2 μM and 80 seconds
T3 construct: soluble human EphB1-His, EphB2-His, and EphB4-His ectodomains; commercially available human EphrinB1-Fc (EB1), EphrinB2-Fc (EB2), and EphrinB3-Fc (EB3) ectodomain proteins; purchased
T3 sequence (P29323 19-543 limits assumed): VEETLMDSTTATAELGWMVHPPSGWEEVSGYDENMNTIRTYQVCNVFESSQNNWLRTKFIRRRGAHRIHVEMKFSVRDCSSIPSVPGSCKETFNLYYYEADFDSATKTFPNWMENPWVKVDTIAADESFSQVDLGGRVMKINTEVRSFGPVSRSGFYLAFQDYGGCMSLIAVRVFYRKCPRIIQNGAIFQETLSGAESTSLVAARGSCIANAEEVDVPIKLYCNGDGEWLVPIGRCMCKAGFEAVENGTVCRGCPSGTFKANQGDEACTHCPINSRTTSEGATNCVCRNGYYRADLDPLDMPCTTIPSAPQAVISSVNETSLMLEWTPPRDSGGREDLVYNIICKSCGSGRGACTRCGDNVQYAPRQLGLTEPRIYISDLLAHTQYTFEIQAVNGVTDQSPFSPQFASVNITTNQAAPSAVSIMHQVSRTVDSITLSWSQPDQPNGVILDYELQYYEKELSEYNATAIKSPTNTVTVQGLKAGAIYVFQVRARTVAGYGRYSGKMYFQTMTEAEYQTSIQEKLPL
Summary of the method: as §1

EphrinB2-EphB2 [2] = biological target: T3, EphrinB2-EphB2; assay: Octet tetramerization inhibition, immobilized human EphrinB2 binding to 50 nM soluble human EphB2
[3] = Absolute AUC/IC50, Table A, EphrinB2-EphB2
[4] = Absolute Association IC50 (300 sec), Table A, EphrinB2-EphB2
[5] = Absolute Dissociation IC50 (450 sec), Table A, EphrinB2-EphB2
[6] = Relative AUC/IC50, Table A, EphrinB2-EphB2, compound 7: association only
[7] = Relative Association IC50 (300 sec), Table A, EphrinB2-EphB2
[8] = Relative Dissociation IC50 (450 sec), Table A, EphrinB2-EphB2

| tetramerization inhibitor activity (EphrinB2-EphB2 [2]) | SMILES | EphB4 Inhibition Percent, Inhibition of Association-Dissociation (EphrinB2-EphB4) | EphB1 Inhibition Percent, Inhibition of Association-Dissociation (EphrinB2-EphB1) | EphB2 Inhibition Percent, Inhibition of Association-Dissociation (EphrinB2-EphB2 [1]) | disruption of unsurmountable tetramer (EphrinB2-EphB2 [2]; 0.8-3.2 μM, listed as A19-L) | IC50 (EphrinB2-EphB2 [2]; [3]) [nM] | IC50 (EphrinB2-EphB2 [2]; [4]) [nM] | IC50 (EphrinB2-EphB2 [2]; [5]) [nM] | IC50 (EphrinB2-EphB2 [2]; [6]) [nM] | IC50 (EphrinB2-EphB2 [2]; [7]) [nM] | IC50 (EphrinB2-EphB2 [2]; [8]) [nM] | IC50 (EphrinB2-EphB2 [2]; tetramerization inhibitor IC50 (relative), association step, surmountable tetramer) [nM] | EphB4 Inhibition Percent, Inhibition of Association ONLY (EphrinB2-EphB4) | EphB1 Inhibition Percent, Inhibition of Association ONLY (EphrinB2-EphB1) [%] | EphB2 Inhibition Percent, Inhibition of Association ONLY (EphrinB2-EphB2 [1]) |
| --- | --- | --- | --- | --- | --- | --- | --- | --- | --- | --- | --- | --- | --- | --- | --- |
|  | O=C(c1ccc(O)c2ncccc12)N1CCOCC1 [Compound 53, (8-hydroxyquinolin-5-yl)(morpholino)methanone] | 16.8% and 12.5% | 38.7% and 26.3% | 65.3% and 40.6% | slight ability to disrupt the unsurmountable tetramer; also recorded: able to inhibit a small amount of the EphrinB2-EphB2 unsurmountable tetramer | 2820 | 3020 | 2340 | 1860 | 1950 | 1620 | ~1600 |  |  |  |
|  | O=[N+]([O-])c1ccc(N2CCN(Cc3ccc(O)c4ncccc34)CC2)cc1 [Compound 38, 8-hydroxy-5-((4-(4-nitrophenyl)piperazin-1-ium-1-yl)methyl)quinolin-1-ium chloride] | 17.5% | 43.2% | 72.1% |  | 2180 | 2290 | 1860 | 1200 | 1230 | 1470 |  | 9.6% | 24.8 | 54.3% |
|  | Oc1ccc(CN2CCN(c3ccc(I)cc3)CC2)c2cccnc12 [Compound 32] | 42.5% | 40.5% | 78.2% |  | > 1600 | > 1600 | > 1600 | 790 | 1400 | 1000 |  | 33.8% | 24.5 | 63.9% |
|  | Oc1c(Br)cc(CN2CCN(Cc3ccc(Br)cc3)CC2)c2cccnc12 [Compound 45, 7-bromo-5-((4-(4-bromobenzyl)piperazin-1-ium-1-yl)methyl)-8-hydroxyquinolin-1-ium chloride] | 28.3% | 49.9% | 77.1% |  | 760 | 790 | 720 |  | 560 | 590 |  | 4.9% | 37.3 | 62.1% |
| exhibit strong IC50 values | COc1ccc(N2CCN(Cc3cc(I)c(O)c4ncccc34)CC2)cc1 [Compound 74, 7-iodo-5-((4-(4-methoxyphenyl)piperazin-1-yl)methyl)quinolin-8-ol] | 43.4% | 58.2% | 70.0% |  | 400 | 560 | 420 |  |  |  |  | 21.0% | 47.2 | 50.6% |
|  | O=S1(=O)CCN(Cc2cc(Br)c(O)c3ncccc23)CC1 [Compound 17, 4-((7-bromo-8-hydroxyquinolin-1-ium-5-yl)methyl)thiomorpholin-4-ium 1,1-dioxide chloride] | 37.2% | 48.0% | 74.5% |  | 1480 | 1500 | 1260 | 810 | 890 | 780 |  | 18.1% | 33.0 | 59.5% |
| eliminated the activity | Oc1ccc(CN2CCN(c3ccc(C(F)(F)F)cc3)CC2)c2cccnc12 [Compound 103, 5-((4-(4-(trifluoromethyl)phenyl)piperazin-1-yl)methyl)quinolin-8-ol] | 11.4% | 33.8% | 27.6% |  |  |  |  |  |  |  |  | 0*% | 16.3 | 10.5% |
|  | Oc1ccc(CN2CCN(c3ccc(Br)cn3)CC2)c2cccnc12 [Compound 34, 5-((4-(5-bromopyridin-2-yl)piperazin-1-ium-1-yl)methyl)-8-hydroxyquinolin-1-ium chloride] | 36.9% | 58.6% | 81.6% |  |  | 2820 | 2630 | 1700 | 2090 |  |  | 20.9% | 46.4 | 69.4% |
|  | Cc1ccc2c(CN3CCN(c4ccc(Br)cc4)CC3)ccc(O)c2n1 [Compound 61, 5-((4-(4-bromophenyl)piperazin-1-ium-1-yl)methyl)-8-hydroxy-2-methylquinolin-1-ium chloride] | 0*% | 11.3% | 0*% |  | > 1600 | > 1600 | > 1600 | > 1600 | > 1600 | > 1600 |  | 0*% | 8.1 | 0*% |
